Measured values reported in patent publication US20260055079A1, “PHTHALAZINONE COMPOUNDS AS PARP7 INHIBITORS” (AZKARRA THERAPEUTICS, INC., priority 2022, published 2026).
pIC50: −log10 of the molar value. Like-named read-outs stand apart in the source and are kept apart here.

How the values were obtained:
[1] = system: NCI-H1373 (human lung adenocarcinoma) cells; assay: Cell proliferation assay (CellTiter-Glo), NCI-H1373; format: cell-based; details: Homo sapiens, NCI-H1373, 144 h, read-out: NCI-H1373 GI50
His-GST-PARP7 = His-GST-PARP7 (Homo sapiens (Human), UniProt Q7Z3E1); assay: PARP7 biochemical assay; details: read-out: PARP7 IC50
Chain of His-GST-PARP7 (Q7Z3E1 whole entry): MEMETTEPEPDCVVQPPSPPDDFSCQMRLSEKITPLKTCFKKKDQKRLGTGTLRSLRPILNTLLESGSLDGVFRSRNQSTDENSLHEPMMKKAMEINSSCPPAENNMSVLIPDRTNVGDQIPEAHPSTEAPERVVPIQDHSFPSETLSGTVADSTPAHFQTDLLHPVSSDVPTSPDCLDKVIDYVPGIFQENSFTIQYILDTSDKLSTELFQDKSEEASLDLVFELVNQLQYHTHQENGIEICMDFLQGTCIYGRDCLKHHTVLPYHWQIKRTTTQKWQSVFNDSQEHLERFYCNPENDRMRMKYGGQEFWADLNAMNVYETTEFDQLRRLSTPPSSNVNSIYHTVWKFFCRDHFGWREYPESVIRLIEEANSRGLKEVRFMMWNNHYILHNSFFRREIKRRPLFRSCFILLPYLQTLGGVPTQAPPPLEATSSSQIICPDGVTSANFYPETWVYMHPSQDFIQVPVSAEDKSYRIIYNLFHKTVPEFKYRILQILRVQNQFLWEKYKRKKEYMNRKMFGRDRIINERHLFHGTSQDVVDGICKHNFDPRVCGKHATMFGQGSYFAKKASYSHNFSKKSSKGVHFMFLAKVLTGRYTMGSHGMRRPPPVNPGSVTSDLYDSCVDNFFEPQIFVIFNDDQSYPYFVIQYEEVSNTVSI

**Q.** For `N#Cc1ccc(N2CCN(C(=O)c3cccc(Cc4n[nH]c(=O)c5ccc(Oc6ccccc6)cc45)c3)CC2)nc1` [Example 2, 6-(4-(3-((4-Oxo-7-phenoxy-3,4-dihydrophthalazin-1-yl)methyl)benzoyl)piperazin-1-yl)nicotinonitrile], which GI50 [1] is on record?
**A.** The GI50 was less than 100 nM.

**Q.** For `N#Cc1ccc(N2CCN(C(=O)c3cccc(Cc4n[nH]c(=O)c5ccc(Cl)cc45)c3)CC2)nc1` [Example 5, 6-(4-(3-((7-Chloro-4-oxo-3,4-dihydrophthalazin-1-yl)methyl)benzoyl)piperazin-1-yl)nicotinonitrile], which GI50 [1] is on record?
**A.** Its GI50 is 100 to 1000 nM.

**Q.** How did the GI50 [1] turn out when `N#Cc1ccc(N2CCN(C(=O)c3cccc(Cc4n[nH]c(=O)c5ccc(F)cc45)c3)CC2)nc1` [Example 6, 6-(4-(3-((7-Fluoro-4-oxo-3,4-dihydrophthalazin-1-yl)methyl)benzoyl)piperazin-1-yl)nicotinonitrile] was run?
**A.** Its GI50 is 100 to 1000 nM.

**Q.** How did the GI50 [1] turn out when `N#Cc1ccc(N2CCN(C(=O)c3cc(Cc4n[nH]c(=O)c5ccc(OCC6CC6)cc45)ccc3F)CC2)nc1` [Example 7, 6-(4-(5-((7-(Cyclopropylmethoxy)-4-oxo-3,4-dihydrophthalazin-1-yl)methyl)-2-fluorobenzoyl)piperazin-1-yl)nicotinonitrile] was run?
**A.** Its GI50 is less than 100 nM.

**Q.** With `N#Cc1ccc(N2CCN(C(=O)c3cc(Cc4n[nH]c(=O)c5ccc(OCC(F)(F)F)cc45)ccc3F)CC2)nc1` [Example 9, 6-(4-(2-Fluoro-5-((4-oxo-7-(2,2,2-trifluoroethoxy)-3,4-dihydrophthalazin-1-yl)methyl)benzoyl)piperazin-1-yl)nicotinonitrile] as the compound, how does the GI50 [1] read?
**A.** Its GI50 is 100 to 1000 nM.

**Q.** And the pIC50 (His-GST-PARP7)?
**A.** Its pIC50 is greater than 7.30.

**Q.** How did the GI50 [1] turn out when `COC1CN(c2ccc3c(=O)[nH]nc(Cc4ccc(F)c(C(=O)N5CCN(c6ccc(C#N)cn6)CC5)c4)c3c2)C1` [Example 11, 6-(4-(2-Fluoro-5-((7-(3-methoxyazetidin-1-yl)-4-oxo-3,4-dihydrophthalazin-1-yl)methyl)benzoyl)piperazin-1-yl)nicotinonitrile] was run?
**A.** The GI50 was 100 to 1000 nM.

**Q.** What about the pIC50 (His-GST-PARP7) of the same compound?
**A.** The pIC50 was greater than 7.30.

**Q.** How did the GI50 ([1]; 6 days, CellTiter-Glo) turn out when `N#Cc1ccc(N2CCN(C(=O)c3cc(Cc4n[nH]c(=O)c5ccc(NC6CC6)cc45)ccc3F)CC2)nc1` [Example 12, 6-(4-(5-((7-(Cyclopropylamino)-4-oxo-3,4-dihydrophthalazin-1-yl)methyl)-2-fluorobenzoyl)piperazin-1-yl)nicotinonitrile] was run?
**A.** Its GI50 is 100 to 1000 nM.

**Q.** What about the pIC50 (His-GST-PARP7) of the same compound?
**A.** Its pIC50 is greater than 7.30.

**Q.** What does the source list for `C#CCNc1ccc2c(=O)[nH]nc(Cc3ccc(F)c(C(=O)N4CCN(c5ccc(C#N)cn5)CC4)c3)c2c1` [Example 15, 6-(4-(2-Fluoro-5-((4-oxo-7-(prop-2-ynylamino)-3,4-dihydrophthalazin-1-yl)methyl)benzoyl)piperazin-1-yl)nicotinonitrile]?
**A.** GI50 ([1]; 6 days, CellTiter-Glo): 1000 to 5000 nM; pIC50 (His-GST-PARP7): > 7.30

**Q.** Which GI50 ([1]; 6 days, CellTiter-Glo) does the source give for `C#CCN(C)c1ccc2c(=O)[nH]nc(Cc3ccc(F)c(C(=O)N4CCN(c5ccc(C#N)cn5)CC4)c3)c2c1` [Example 17, 6-(4-(2-Fluoro-5-((7-(methyl(prop-2-ynyl)amino)-4-oxo-3,4-dihydrophthalazin-1-yl)methyl)benzoyl)piperazin-1-yl)nicotinonitrile] here?
**A.** Its GI50 is 1000 to 5000 nM.

**Q.** And the pIC50 (His-GST-PARP7)?
**A.** Its pIC50 is greater than 7.30.

**Q.** For `CC#CCOc1ccc2c(=O)[nH]nc(Cc3ccc(F)c(C(=O)N4CCN(c5ccc(C#N)cn5)CC4)c3)c2c1` [Example 19, 6-(4-(5-((7-(But-2-ynyloxy)-4-oxo-3,4-dihydrophthalazin-1-yl)methyl)-2-fluorobenzoyl)piperazin-1-yl)nicotinonitrile], which GI50 ([1]; 6 days, CellTiter-Glo) is on record?
**A.** Its GI50 is 100 to 1000 nM.

**Q.** What about the pIC50 (His-GST-PARP7) of the same compound?
**A.** Its pIC50 is greater than 7.30.

**Q.** How did the GI50 [1] turn out when `N#Cc1ccc(N2CCN(C(=O)c3cc(Cc4n[nH]c(=O)c5ccc(OC(F)F)cc45)ccc3F)CC2)nc1` [Example 21, 6-(4-(5-((7-(Difluoromethoxy)-4-oxo-3,4-dihydrophthalazin-1-yl)methyl)-2-fluorobenzoyl)piperazin-1-yl)nicotinonitrile] was run?
**A.** Its GI50 is 100 to 1000 nM.

**Q.** What about the pIC50 (His-GST-PARP7) of the same compound?
**A.** The pIC50 was greater than 7.30.

**Q.** With `N#Cc1ccc(N2CCN(C(=O)c3cc(Cc4n[nH]c(=O)c5ccc(NCC(F)(F)F)cc45)ccc3F)CC2)nc1` [Example 22, 6-(4-(2-Fluoro-5-((4-oxo-7-((2,2,2-trifluoroethyl)amino)-3,4-dihydrophthalazin-1-yl)methyl)benzoyl)piperazin-1-yl)nicotinonitrile] as the compound, how does the GI50 ([1]; 6 days, CellTiter-Glo) read?
**A.** Its GI50 is 1000 to 5000 nM.

**Q.** What about the pIC50 (His-GST-PARP7) of the same compound?
**A.** The pIC50 was greater than 7.30.

**Q.** What does the source list for `N#Cc1ccc(N2CCN(C(=O)c3cc(Cc4n[nH]c(=O)c5ccc(NC6CCC6)cc45)ccc3F)CC2)nc1` [Example 29, 6-(4-(5-((7-(Cyclobutylamino)-4-oxo-3,4-dihydrophthalazin-1-yl)methyl)-2-fluorobenzoyl)piperazin-1-yl)nicotinonitrile]?
**A.** GI50 ([1]; 6 days, CellTiter-Glo): 100 to 1000 nM; pIC50 (His-GST-PARP7): > 7.30

**Q.** With `N#Cc1ccc(N2CCN(C(=O)c3cc(Cc4n[nH]c(=O)c5ccc(NCCC(F)(F)F)cc45)ccc3F)CC2)nc1` [Example 33, 6-(4-(2-Fluoro-5-((4-oxo-7-((3,3,3-trifluoropropyl)amino)-3,4-dihydrophthalazin-1-yl)methyl)benzoyl)piperazin-1-yl)nicotinonitrile] as the compound, how does the GI50 ([1]; 6 days, CellTiter-Glo) read?
**A.** The GI50 was 1000 to 5000 nM.

**Q.** What about the pIC50 (His-GST-PARP7) of the same compound?
**A.** Its pIC50 is greater than 7.30.

**Q.** Which GI50 ([1]; 6 days, CellTiter-Glo) does the source give for `CC#Cc1ccc2c(=O)[nH]nc(Cc3ccc(F)c(C(=O)N4CCN(C(=O)CC#N)CC4)c3)c2c1` [Example 58, 3-(4-(2-Fluoro-5-((4-oxo-7-(prop-1-ynyl)-3,4-dihydrophthalazin-1-yl)methyl)benzoyl)piperazin-1-yl)-3-oxopropanenitrile] here?
**A.** The GI50 was greater than 5000 nM.

**Q.** What about the pIC50 (His-GST-PARP7) of the same compound?
**A.** Its pIC50 is greater than 7.30.

**Q.** What does the source list for `CC#Cc1ccc2c(=O)[nH]nc(Cc3ccc(F)c(C(=O)N4CC5(C4)CN(c4ccc(C#N)cn4)C5)c3)c2c1` [Example 60, 6-(6-(2-Fluoro-5-((4-oxo-7-(prop-1-yn-1-yl)-3,4-dihydrophthalazin-1-yl)methyl)benzoyl)-2,6-diazaspiro[3.3]heptan-2-yl)nicotinonitrile]?
**A.** GI50 ([1]; 6 days, CellTiter-Glo): 1000 to 5000 nM; pIC50 (His-GST-PARP7): > 7.30

**Q.** How did the GI50 ([1]; 6 days, CellTiter-Glo) turn out when `CC#Cc1ccc2c(=O)[nH]nc(Cc3ccc(F)c(C(=O)N4CCn5c(nnc5C5CC5)C4)c3)c2c1` [Example 63, 4-[[3-(3-cyclopropyl-6,8-dihydro-5H-[1,2,4]triazolo[4,3-a]pyrazine-7-carbonyl)-4-fluoro-phenyl]methyl]-6-prop-1-ynyl-2H-phthalazin-1-one] was run?
**A.** Its GI50 is greater than 5000 nM.

**Q.** What about the pIC50 (His-GST-PARP7) of the same compound?
**A.** The pIC50 was greater than 7.30.

**Q.** How did the GI50 ([1]; 6 days, CellTiter-Glo) turn out when `CC#Cc1ccc2c(=O)[nH]nc(Cc3ccc(F)c(C(=O)N4C[C@H]5C[C@@H]4CN5c4ccc(C#N)cn4)c3)c2c1` [Example 66, 6-((1R,4R)-5-(2-Fluoro-5-((4-oxo-7-(prop-1-ynyl)-3,4-dihydrophthalazin-1-yl)methyl)benzoyl)-2,5-diazabicyclo[2.2.1]heptan-2-yl)nicotinonitrile] was run?
**A.** The GI50 was 1000 to 5000 nM.

**Q.** What about the pIC50 (His-GST-PARP7) of the same compound?
**A.** Its pIC50 is greater than 7.30.

**Q.** How did the GI50 ([1]; 6 days, CellTiter-Glo) turn out when `CC#Cc1ccc2c(=O)[nH]nc(Cc3ccc(F)c(C(=O)N4CCC(F)(c5ccc(C#N)cn5)CC4)c3)c2c1` [Example 67, 6-(4-Fluoro-1-(2-fluoro-5-((4-oxo-7-(prop-1-yn-1-yl)-3,4-dihydrophthalazin-1-yl)methyl)benzoyl)piperidin-4-yl)nicotinonitrile] was run?
**A.** Its GI50 is 1000 to 5000 nM.

**Q.** And the pIC50 (His-GST-PARP7)?
**A.** Its pIC50 is 7.00 to 7.30.

**Q.** Which results are given for `CC#Cc1ccc2c(=O)[nH]nc(Cc3ccc(F)c(C(=O)N4CC(N(C)c5cc(C#N)ccn5)C4)c3)c2c1` [Example 69]?
**A.** GI50 ([1]; 6 days, CellTiter-Glo): > 5000 nM; pIC50 (His-GST-PARP7): < 5.70

**Q.** `CC#Cc1ccc2c(=O)[nH]nc(Cc3ccc(F)c(C(=O)N4CC(N(C)c5ccc(C#N)cn5)C4)c3)c2c1` [Example 70, 6-((1-(2-Fluoro-5-((4-oxo-7-(prop-1-yn-1-yl)-3,4-dihydrophthalazin-1-yl)methyl)benzoyl)azetidin-3-yl)(methyl)amino)nicotinonitrile 2,2,2-trifluoroacetate] was tested. Which GI50 ([1]; 6 days, CellTiter-Glo) did it give?
**A.** Its GI50 is greater than 5000 nM.

**Q.** And the pIC50 (His-GST-PARP7)?
**A.** The pIC50 was less than 5.70.
